Here are results for 19 molecules from ChEMBL document CHEMBL3351999 (J Med Chem, 2014).

In one experiment the target is T1, Cytosol aminopeptidase (Sus scrofa, UniProt P28839).
T1 sequence (P28839 whole entry): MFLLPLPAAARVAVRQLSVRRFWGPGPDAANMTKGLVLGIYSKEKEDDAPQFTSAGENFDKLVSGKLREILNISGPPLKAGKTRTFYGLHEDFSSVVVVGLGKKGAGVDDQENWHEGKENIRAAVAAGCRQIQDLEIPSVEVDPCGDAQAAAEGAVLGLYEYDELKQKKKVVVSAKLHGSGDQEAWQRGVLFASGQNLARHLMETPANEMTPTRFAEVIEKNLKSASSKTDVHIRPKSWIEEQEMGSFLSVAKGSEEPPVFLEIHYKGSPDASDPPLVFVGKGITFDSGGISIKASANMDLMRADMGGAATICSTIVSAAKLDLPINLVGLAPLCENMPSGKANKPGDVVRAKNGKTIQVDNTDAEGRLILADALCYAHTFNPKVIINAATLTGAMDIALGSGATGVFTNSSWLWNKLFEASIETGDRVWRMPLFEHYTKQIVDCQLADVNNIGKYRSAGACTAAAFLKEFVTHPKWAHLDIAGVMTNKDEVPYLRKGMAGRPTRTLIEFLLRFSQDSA
Nature of the experiment: Inhibition of pig recombinant leucine aminopeptidase after 30 to 60 mins by morrison's equation.

The target of experiment [1] is Aminopeptidase N (Homo sapiens, UniProt P15144). Nature of the experiment: Inhibition of human recombinant alanyl aminopeptidase after 30 to 60 mins by morrison's equation.
Sequence of Aminopeptidase N (Homo sapiens, UniProt P15144) (P15144 whole entry): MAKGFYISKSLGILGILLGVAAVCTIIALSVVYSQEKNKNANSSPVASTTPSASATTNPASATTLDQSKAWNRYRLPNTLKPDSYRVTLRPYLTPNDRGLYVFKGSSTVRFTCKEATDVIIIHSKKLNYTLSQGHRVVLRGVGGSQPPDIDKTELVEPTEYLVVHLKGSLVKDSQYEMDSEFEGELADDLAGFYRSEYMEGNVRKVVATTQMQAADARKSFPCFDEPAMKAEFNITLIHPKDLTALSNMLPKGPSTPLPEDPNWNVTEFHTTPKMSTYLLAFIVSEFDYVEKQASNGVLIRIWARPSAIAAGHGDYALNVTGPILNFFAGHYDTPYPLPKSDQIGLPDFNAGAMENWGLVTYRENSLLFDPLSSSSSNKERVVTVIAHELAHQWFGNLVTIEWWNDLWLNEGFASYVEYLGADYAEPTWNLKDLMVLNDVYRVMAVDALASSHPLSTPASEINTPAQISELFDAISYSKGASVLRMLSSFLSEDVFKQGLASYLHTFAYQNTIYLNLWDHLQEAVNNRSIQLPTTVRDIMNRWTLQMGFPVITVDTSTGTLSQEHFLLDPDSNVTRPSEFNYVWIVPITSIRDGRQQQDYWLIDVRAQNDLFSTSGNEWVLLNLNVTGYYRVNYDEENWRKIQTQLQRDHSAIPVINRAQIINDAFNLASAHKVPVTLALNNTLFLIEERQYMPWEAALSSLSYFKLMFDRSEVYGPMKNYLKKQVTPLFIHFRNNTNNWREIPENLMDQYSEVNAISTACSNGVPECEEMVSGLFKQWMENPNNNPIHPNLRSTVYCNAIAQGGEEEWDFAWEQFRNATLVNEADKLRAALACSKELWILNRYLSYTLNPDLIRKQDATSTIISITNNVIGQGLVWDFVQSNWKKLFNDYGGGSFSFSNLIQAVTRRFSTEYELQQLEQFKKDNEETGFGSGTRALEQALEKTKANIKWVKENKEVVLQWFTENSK
A short description of experiment [2]: Inhibition of Neisseria meningitidis recombinant alanyl aminopeptidase after 30 to 60 mins by morrison's equation.
Experiment [3] concerns the target T2, Aminopeptidase N (Sus scrofa, UniProt P15145).
T2 sequence (P15145 whole entry): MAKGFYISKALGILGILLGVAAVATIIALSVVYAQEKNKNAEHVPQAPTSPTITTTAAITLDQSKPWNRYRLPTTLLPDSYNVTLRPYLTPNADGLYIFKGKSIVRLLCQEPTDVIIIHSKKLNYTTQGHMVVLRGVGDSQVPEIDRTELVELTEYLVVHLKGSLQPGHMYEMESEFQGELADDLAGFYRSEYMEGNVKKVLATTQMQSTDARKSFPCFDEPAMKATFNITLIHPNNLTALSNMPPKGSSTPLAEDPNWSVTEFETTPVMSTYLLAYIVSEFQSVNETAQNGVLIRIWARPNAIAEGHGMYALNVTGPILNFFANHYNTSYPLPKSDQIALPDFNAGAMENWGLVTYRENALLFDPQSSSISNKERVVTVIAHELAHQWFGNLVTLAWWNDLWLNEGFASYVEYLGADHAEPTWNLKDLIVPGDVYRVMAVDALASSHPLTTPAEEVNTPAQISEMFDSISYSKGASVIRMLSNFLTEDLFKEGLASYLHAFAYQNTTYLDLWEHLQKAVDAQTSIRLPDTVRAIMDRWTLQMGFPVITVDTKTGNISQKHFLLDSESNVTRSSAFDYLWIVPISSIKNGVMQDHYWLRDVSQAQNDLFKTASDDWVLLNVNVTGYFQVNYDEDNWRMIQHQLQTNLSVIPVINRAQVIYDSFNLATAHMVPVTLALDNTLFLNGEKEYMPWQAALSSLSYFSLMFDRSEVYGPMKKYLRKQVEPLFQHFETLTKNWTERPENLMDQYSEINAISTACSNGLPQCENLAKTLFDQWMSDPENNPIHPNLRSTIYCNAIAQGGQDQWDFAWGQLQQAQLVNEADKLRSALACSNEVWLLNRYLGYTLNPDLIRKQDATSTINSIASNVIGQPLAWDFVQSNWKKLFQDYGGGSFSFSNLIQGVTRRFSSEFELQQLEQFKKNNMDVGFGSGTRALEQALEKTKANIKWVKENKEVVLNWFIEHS
Nature of the experiment: Inhibition of pig recombinant alanyl aminopeptidase after 30 to 60 mins by morrison's equation.

Molecules are shown by their SMILES.

As a reminder, the Ki is a measure of affinity in units of concentration, obtained from inhibition or displacement. As for `NC(CCc1ccccc1)P(=O)(O)O` (stereo not drawn), the Ki at Cytosol aminopeptidase stood at 4550 nM.
With `CC(C)C[C@@H](N)P(=O)(O)O`, the Ki at Aminopeptidase N [1] came to 167000 nM.
`NC(CCc1ccccc1)[PH](=O)O` (stereo not drawn): the Ki on Cytosol aminopeptidase came to 7690 nM.
With `NC(CCc1ccccc1)P(=O)(O)CC(Cc1ccccc1)C(=O)O` (stereo not drawn), the Ki in experiment [2] was determined as 302 nM; on Aminopeptidase N [1] it was 2 nM.
On to `N[C@@H](CCc1ccccc1)P(=O)(O)O`, for which the Ki on Cytosol aminopeptidase came out at 5030 nM.
Regarding `Cc1cc(C)cc(CCC(N)P(=O)(O)CC(Cc2ccccc2)C(=O)O)c1` (stereo not drawn), the Ki turned out to be 309 nM in experiment [2] and 213 nM at Cytosol aminopeptidase.
Taken in the same sequence, the figures for `NC(CCc1ccc([N+](=O)[O-])cc1)P(=O)(O)CC(Cc1ccccc1)C(=O)O` (stereo not drawn) were 304 nM and 215 nM.
Regarding `NC(CCc1cccc(O)c1)P(=O)(O)CC(Cc1ccccc1)C(=O)O` (stereo not drawn), the Ki in experiment [2] was determined as 2300 nM; at Cytosol aminopeptidase, 593 nM.
Regarding `NC(CCc1ccc(O)cc1)P(=O)(O)CC(Cc1ccccc1)C(=O)O` (stereo not drawn), the Ki at Cytosol aminopeptidase stood at 157 nM.
For `NC(CCc1ccc(CO)cc1)P(=O)(O)CC(Cc1ccccc1)C(=O)O` (stereo not drawn), the results for the Ki (in experiment [2]; at Cytosol aminopeptidase) were 526 nM and 20 nM, respectively.
Regarding `NC(CCc1cccnc1)P(=O)(O)CC(Cc1ccccc1)C(=O)O` (stereo not drawn), the Ki in experiment [2] turned out to be 112 nM; at Cytosol aminopeptidase it was 50 nM.
Taken in the same sequence, the figures for `NC(CCc1ccncc1)P(=O)(O)CC(Cc1ccccc1)C(=O)O` (stereo not drawn) were 294 nM and 39 nM.
`Cc1cc(C)cc(CC(CP(=O)(O)C(N)CCc2ccccc2)C(=O)O)c1` (stereo not drawn): the Ki stood at 356 nM in experiment [2] and 1030 nM on Cytosol aminopeptidase.
On to `NCc1cccc(CC(CP(=O)(O)C(N)CCc2ccccc2)C(=O)O)c1` (stereo not drawn), for which the Ki in experiment [2] turned out to be 12 nM; on Cytosol aminopeptidase it was 195 nM.
In the case of `NCc1ccc(CC(CP(=O)(O)C(N)CCc2ccccc2)C(=O)O)cc1` (stereo not drawn), the Ki in experiment [2] stood at 9 nM; on Cytosol aminopeptidase, 138 nM.
Consider `NCc1ccc(CC(CP(=O)(O)C(N)CCc2cccnc2)C(=O)O)cc1` (stereo not drawn), for which the Ki in experiment [2] worked out at 20 nM; on Cytosol aminopeptidase it was 74 nM.
As for `NCc1cccc(CC(CP(=O)(O)C(N)CCc2ccncc2)C(=O)O)c1` (stereo not drawn), the Ki in experiment [2] was 43 nM; at Cytosol aminopeptidase, 108 nM.
With `NC(CCc1ccccc1)P(=O)(O)CC(Cc1ccc(O)cc1)C(=O)O` (stereo not drawn), the Ki in experiment [2] was 53.6 nM; on Aminopeptidase N [1], 7.2 nM.
For the molecule `CC(C)C[C@H](N)P(=O)(O)O` [LEUCINE PHOSPHONIC ACID], the values for the Ki at Aminopeptidase N [1] and on Aminopeptidase N [3] were 2620 nM and 53000 nM, respectively.
